According to patent publication US8299252B2, “Pyrazolopyridine and pyrrolopyridine multikinase inhibitors” (Chugai Seiyaku Kabushiki Kaisha, priority 2005, dated 2012):
Values after ≈ are worked out from the molar mass of the structure shown.

Assays:
[1] = Solubility in fasted state simulated intestinal fluid; assay type: physicochemical; conditions: pH 6.5, fassif, kinetic from dmso stock, fasted state simulated intestinal fluid (pH6.5), 37° C.
Procedure: 2 μL of each dimethyl sulfoxide solutions containing test compounds were dispensed into wells of a 96-well plate, and 200 μL of fasted state simulated intestinal fluid (pH6.5) was added to each well. The plate was shaken at 37° C. for 20 hours. The solution was filtered through a membrane filter, and 101 μL of the filtrate was transferred to a UV plate, followed by addition of 100 μL of a solution mixture of ethanol:water=2:1 thereto. Separately, as a standard, 101 μL of a solution prepared by 2 μL of a dimethyl sulfoxide solution, 4 μL of dimethyl sulfoxide, 400 μL of ethanol, and 200 μL of water was transferred to a UV plate, and 100 μL of fasted state simulated intestinal fluid (pH6.5) was added thereto. The solubility was calculated by the following expression: Solubility=[(absorbance of test solution)−blank]/[(absorbance of standard solution)−blank]×165 μM (165 μM is the concentration of the standard solution) Composition of the fasted state simulated intestinal fluid (pH6.5)
The composition was prepared in compliance with the description in E. Galia, et al., Pharm. Res. 1998, 698.
Taurocholic acid (161 mg), L-α-phosphatidylcholine (59 mg), potassium dihydrogen phosphate (0.39 g), and potassium chloride (0.77 g) were added to about 90 mL of water. The resulting solution was adjusted to a pH of 6.5 with a sodium hydroxide aqueous solution and then diluted to a volume of 100 mL with water. The solution was filtered through a membrane filter.

[2] = system: human colon cancer cell line HCT116 cells; assay: Cell proliferation inhibitory activity, HCT116; assay type: cell-based; conditions: for IC50: Homo sapiens, HCT-116, read-out: 50% proliferation inhibitory concentration (IC50 value) HCT116, HCT116, 72 hours, WST-8
Procedure: (§1) The compounds according to the present invention were measured for cancer cell proliferation inhibitory activity and human umbilical vein endothelial cell (HUVEC) proliferation inhibitory activity.
(§2) Test compounds were serially diluted with dimethyl sulfoxide and then diluted 50 times with Ca^2+- and Mg^2+-free phosphate-buffered saline, and 20 μL of each of the resulting solution was dispensed into a 96-well plate. […] Each cell suspension contains approximately 3000 cells/180 μL. These cell suspensions were dispensed to the plate containing the test compounds at 180 μL/well and incubated in a 5% carbon dioxide gas incubator at 37° C. for 72 hours. 20 μL of WST-8 (HCT116, Dojin) or WST-1 (HUVEC, Roche Diagnostics) was added to each well, and absorbance at 450 nm (reference wavelength: 650 nm) was measured.

[3] = system: human umbilical vein endothelial cells (HUVEC), VEGF-dependent proliferation; assay: VEGF-dependent HUVEC proliferation inhibition assay; assay type: cell-based; conditions: read-out: 50% proliferation inhibitory concentration (IC50 value) HUVEC (VEGF-dependent), 20 ng/mL of VEGF, 72 hours, WST-1
Procedure: as §1, §2

[4] = system: human umbilical vein endothelial cells (HUVEC), VEGF-independent proliferation; assay: VEGF-independent HUVEC proliferation inhibition assay; assay type: cell-based; conditions: read-out: 50% proliferation inhibitory concentration (IC50 value) HUVEC (VEGF-independent), vascular endothelial cell growth-promoting agent and heparin, 72 hours, WST-1
Procedure: as §1, §2

Raf-1 = Raf-1 (Homo sapiens, UniProt P04049); assay: Raf-1 enzyme inhibition assay (MEK-1 phosphorylation, HTRF); assay type: biochemical; conditions: for IC50: phosphorylation of His6-MEK-1
Procedure: (§3) The compounds according to the present invention were measured for Raf-1 and KDR enzyme inhibitory activities.
(§4) The Raf-1 inhibitory activity was measured by the activity of Raf-1 protein for inhibiting phosphorylation of MEK-1 protein having six histidine residues (His6) fused to the N-terminus thereof. […] The KDR inhibitory activity was measured by the activity of KDR intracellular domain protein for inhibiting phosphorylation of a biotinylated peptide ([…]).

[5] = molecular target: KDR intracellular domain protein (Homo sapiens, UniProt P35968); assay: KDR enzyme inhibition assay (biotinylated peptide phosphorylation, HTRF); assay type: biochemical; conditions: phosphorylation of biotinylated peptide
Procedure: as §3, §4

[6] = molecular target: T1, FLT3 intracellular domain protein (Homo sapiens, UniProt P36888); assay: Flt3 enzyme inhibition test (HTRF); assay type: biochemical; conditions: phosphorylation of biotinylated peptide
T1 sequence (P36888 564-993 limits assumed): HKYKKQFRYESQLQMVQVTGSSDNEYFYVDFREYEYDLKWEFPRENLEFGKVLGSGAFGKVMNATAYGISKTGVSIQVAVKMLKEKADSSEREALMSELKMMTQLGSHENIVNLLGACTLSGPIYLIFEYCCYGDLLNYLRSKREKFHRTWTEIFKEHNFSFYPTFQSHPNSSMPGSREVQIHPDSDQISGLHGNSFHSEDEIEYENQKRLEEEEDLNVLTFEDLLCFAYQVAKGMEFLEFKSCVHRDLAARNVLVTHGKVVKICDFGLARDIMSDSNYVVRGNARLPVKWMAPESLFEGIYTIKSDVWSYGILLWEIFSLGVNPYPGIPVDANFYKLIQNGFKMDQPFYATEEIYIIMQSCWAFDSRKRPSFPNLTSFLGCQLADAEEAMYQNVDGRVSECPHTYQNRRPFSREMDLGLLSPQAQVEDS
Procedure: The FLT3 inhibitory activity was measured by the activity of FLT3 intracellular domain protein inhibiting for phosphorylation of a biotinylated peptide ([…]).

Sequence of Raf-1 (P04049 whole entry): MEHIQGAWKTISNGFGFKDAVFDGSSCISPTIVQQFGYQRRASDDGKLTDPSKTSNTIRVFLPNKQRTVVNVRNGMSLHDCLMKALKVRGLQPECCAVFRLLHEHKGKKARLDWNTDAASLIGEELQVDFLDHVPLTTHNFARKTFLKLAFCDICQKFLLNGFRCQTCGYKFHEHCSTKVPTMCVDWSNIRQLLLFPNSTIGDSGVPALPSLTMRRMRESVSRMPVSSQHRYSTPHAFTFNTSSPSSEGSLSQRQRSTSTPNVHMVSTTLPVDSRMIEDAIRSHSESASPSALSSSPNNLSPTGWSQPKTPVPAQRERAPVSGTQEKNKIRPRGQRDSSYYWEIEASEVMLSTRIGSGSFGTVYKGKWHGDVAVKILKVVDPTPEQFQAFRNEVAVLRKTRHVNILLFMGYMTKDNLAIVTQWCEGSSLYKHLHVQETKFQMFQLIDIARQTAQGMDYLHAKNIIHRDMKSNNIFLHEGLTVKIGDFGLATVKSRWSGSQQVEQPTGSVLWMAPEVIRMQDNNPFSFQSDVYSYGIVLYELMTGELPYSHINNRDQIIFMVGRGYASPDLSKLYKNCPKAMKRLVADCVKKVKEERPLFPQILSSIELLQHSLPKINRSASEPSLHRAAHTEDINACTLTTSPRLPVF
Sequence of KDR intracellular domain protein (P35968 786-1356 limits assumed): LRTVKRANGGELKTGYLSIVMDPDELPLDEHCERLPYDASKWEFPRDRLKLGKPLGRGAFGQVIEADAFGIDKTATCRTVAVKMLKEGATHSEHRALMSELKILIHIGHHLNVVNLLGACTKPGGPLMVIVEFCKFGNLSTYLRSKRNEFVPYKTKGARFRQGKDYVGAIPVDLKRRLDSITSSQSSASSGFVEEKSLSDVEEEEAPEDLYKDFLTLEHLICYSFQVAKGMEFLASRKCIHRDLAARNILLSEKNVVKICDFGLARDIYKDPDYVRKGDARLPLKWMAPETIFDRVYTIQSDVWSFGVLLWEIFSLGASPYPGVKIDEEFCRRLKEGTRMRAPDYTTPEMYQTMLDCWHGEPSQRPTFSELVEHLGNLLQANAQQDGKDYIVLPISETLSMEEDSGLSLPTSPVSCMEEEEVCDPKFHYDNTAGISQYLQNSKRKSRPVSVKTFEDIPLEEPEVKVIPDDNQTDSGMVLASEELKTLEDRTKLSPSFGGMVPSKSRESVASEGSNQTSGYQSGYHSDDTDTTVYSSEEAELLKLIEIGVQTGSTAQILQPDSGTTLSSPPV

Compound | solubility at 20 h [1] | IC50 [2] | IC50 (Raf-1) | IC50 [5] | IC50 [6] | Raf-1 inhibitory activity (in words) (Raf-1) | IC50 [3] | IC50 [4] | proliferation inhibitory activity for HCT116 cells (in words) [2]
O=C(Nc1ccc(Oc2ccnc3[nH]ccc23)cc1)Nc1cc(OC2CCOCC2)cc(C(F)(F)F)c1 [Compound 9, 1-[4-(1H-Pyrrolo[2,3-b]pyridin-4-yloxy)phenyl]-3-[3-(tetrahydro-pyran-4-yloxy)-5-(trifluoromethyl)phenyl]urea] |  | 1.7 µM | 0.065 µM | 0.0022 µM |  |  | 0.03 µM | 1.8 µM | 
O=C(Nc1ccc(Oc2ccnc3[nH]ccc23)cc1)Nc1cc(CCCC(F)F)cc(C(F)(F)F)c1 [Compound 41, 1-[3-(4,4-Difluorobutyl)-5-(trifluoromethyl)phenyl]-3-[4-(1H-pyrrolo[2,3-b]pyridin-4-yloxy)phenyl]urea] |  |  | 0.082 µM | 0.0035 µM |  |  |  |  | 
COCCOc1cccc2cc(NC(=O)Nc3ccc(Oc4ccnc5[nH]ccc45)cc3)ccc12 [Compound 3, 1-[5-(2-Methoxyethoxy)naphthalen-2-yl]-3-[4-(1H-pyrrolo[2,3-b]pyridin-4-yloxy)phenyl]urea] |  | 3.4 µM |  |  | 0.015 µM |  | 0.0037 µM | 4.4 µM | 
O=C(Nc1ccc(Oc2ccnc3[nH]ccc23)cc1)Nc1ccc2c(CCCF)cccc2c1 [Compound 46, 1-[5-(3-Fluoropropyl)naphthalen-2-yl]-3-[4-(1H-pyrrolo[2,3-b]pyridin-4-yloxy)phenyl]urea] |  | 3.3 µM |  |  |  |  | 0.015 µM | 4.1 µM | 
O=C(Nc1ccc(Oc2ccnc3[nH]ccc23)cc1)Nc1cc(CCC(F)F)cc(C(F)(F)F)c1 [Compound 32, 1-[3-(3,3-Difluoropropyl)-5-(trifluoromethyl)phenyl]-3-[4-(1H-pyrrolo[2,3-b]pyridin-4-yloxy)phenyl]urea] |  | 1.5 µM | 0.062 µM | 0.00095 µM |  |  | 0.015 µM | 1.2 µM | 
O=C(Nc1ccc(Oc2ccnc3[nH]ncc23)cc1)Nc1cc(CCF)cc(C(F)(F)F)c1 [Compound 24, 1-[3-(2-Fluoroethyl)-5-(trifluoromethyl)phenyl]-3-[4-(1H-pyrazolo[3,4-b]pyridin-4-yloxy)phenyl]urea] | 0.019 mg/mL (≈ 41.4 µM) |  |  |  | 0.018 µM |  |  |  | 
O=C(Nc1ccc(Oc2ccnc3[nH]ncc23)cc1)Nc1ccc(CCCCF)c(C(F)(F)F)c1 [Compound 35, 1-[4-(4-Fluorobutyl)-3-(trifluoromethyl)phenyl]-3-[4-(1H-pyrazolo[3,4-b]pyridin-4-yloxy)phenyl]urea] | 0.018 mg/mL (≈ 36.9 µM) |  |  |  |  |  |  |  | 
O=C(Nc1ccc(Oc2ccnc3[nH]ccc23)cc1)Nc1ccc2c(CCF)cccc2c1 [Compound 42, 1-[5-(2-Fluoroethyl)naphthalen-2-yl]-3-[4-(1H-pyrrolo[2,3-b]pyridin-4-yloxy)phenyl]urea] |  | 4.4 µM |  |  | 0.006 µM |  | 0.05 µM | 5.9 µM | 
O=C(Nc1ccc(F)cc1)Nc1ccc(Oc2ccnc3[nH]ccc23)cc1 [Compound B, reference compound] |  |  |  |  |  | does not have Raf-1 inhibitory activity |  |  | does not have proliferation inhibitory activity
O=C(Nc1ccc(Oc2ccnc3[nH]ccc23)cc1)Nc1cc(C(F)(F)F)cc(C(F)(F)F)c1 [Compound 50, 1-[3,5-Bis(trifluoromethyl)phenyl]-3-[4-(1H-pyrrolo[2,3-b]pyridin-4-yloxy)phenyl]urea] | 0.035 mg/mL (≈ 72.9 µM) |  |  |  |  |  |  |  | 
O=C(Nc1ccc(Oc2ccnc3[nH]ccc23)cc1)Nc1cc(CCCCF)cc(C(F)(F)F)c1 [Compound 38, 1-[3-(4-Fluorobutyl)-5-(trifluoromethyl)phenyl]-3-[4-(1H-pyrrolo[2,3-b]pyridin-4-yloxy)phenyl]urea] |  |  | 0.064 µM | 0.0013 µM |  |  |  |  | 
O=C(Nc1ccc(Oc2ccnc3[nH]ccc23)cc1)Nc1ccc(OCC(F)(F)F)c(C(F)(F)F)c1 [Compound 13, 1-[4-(1H-Pyrrolo[2,3-b]pyridin-4-yloxy)phenyl]-3-[4-(2,2,2-trifluoro-ethoxy)-3-(trifluoromethyl)phenyl]urea] | 0.015 mg/mL (≈ 29.4 µM) | 3.1 µM |  |  |  |  | 0.0074 µM | 1.2 µM | 
O=C(Nc1ccc(Oc2ccnc3[nH]ccc23)cc1)Nc1cc(CCCF)cc(C(F)(F)F)c1 [Compound 29, 1-[3-(3-Fluoropropyl)-5-(trifluoromethyl)phenyl]-3-[4-(1H-pyrrolo[2,3-b]pyridin-4-yloxy)phenyl]urea] |  | 1.6 µM | 0.082 µM | 0.0091 µM |  |  | 0.008 µM | 1.1 µM | 

Continued, in another order:

solubility at 20 h [1] | IC50 [2] | IC50 (Raf-1) | IC50 [5] | IC50 [6] | Raf-1 inhibitory activity (in words) (Raf-1) | Compound | IC50 [3] | IC50 [4] | proliferation inhibitory activity for HCT116 cells (in words) [2]
0.025 mg/mL (≈ 50.4 µM) |  |  |  |  |  | O=C(Nc1ccc(Oc2ccnc3[nH]ccc23)cc1)Nc1ccc(OC(F)(F)F)c(C(F)(F)F)c1 [Compound 20, 1-[4-(1H-Pyrrolo[2,3-b]pyridin-4-yloxy)phenyl]-3-[4-trifluoromethoxy-3-(trifluoromethyl)phenyl]urea] |  |  | 
0.015 mg/mL (≈ 33.8 µM) | 1 µM | 0.035 µM | 0.00035 µM | 0.016 µM |  | O=C(Nc1ccc(Oc2ccnc3[nH]ccc23)cc1)Nc1ccc(CF)c(C(F)(F)F)c1 [Compound 51, 1-(4-fluoromethyl-3-trifluoromethyl-phenyl)-3-[4-(1H-pyrrolo[2,3-b]pyridin-4-yloxy)phenyl]urea] | 0.004 µM | 0.8 µM | 
 | 2.2 µM | 0.07 µM | 0.016 µM |  |  | C=Cc1ccc(NC(=O)Nc2ccc(Oc3ccnc4[nH]ccc34)cc2)cc1C(F)(F)F [Compound 56, 1-[4-(1H-Pyrrolo[2,3-b]pyridin-4-yloxy)phenyl]-3-(3-trifluoromethyl-4-vinyl-phenyl)urea] | 0.012 µM | 3.1 µM | 
 | 1.5 µM | 0.047 µM | 0.0085 µM |  |  | CCc1ccc(NC(=O)Nc2ccc(Oc3ccnc4[nH]ccc34)cc2)cc1C(F)(F)F [Compound 55, 1-(4-Ethyl-3-trifluoromethyl-phenyl)-3-[4-(1H-pyrrolo[2,3-b]pyridin-4-yloxy)phenyl]urea] | 0.0072 µM | 1.4 µM | 
0.021 mg/mL (≈ 43.2 µM) |  |  |  |  |  | O=C(Nc1ccc(Oc2ccnc3[nH]ccc23)cc1)Nc1ccc(CCCCF)c(C(F)(F)F)c1 [Compound 34, 1-[4-(4-Fluorobutyl)-3-(trifluoromethyl)phenyl]-3-[4-(1H-pyrrolo[2,3-b]pyridin-4-yloxy)phenyl]urea] |  |  | 
 |  | 0.019 µM | 0.0037 µM | 0.0069 µM |  | O=C(Nc1ccc(Oc2ccnc3[nH]ncc23)cc1)Nc1ccc(CCF)c(C(F)(F)F)c1 [Compound 23, 1-[4-(2-Fluoroethyl)-3-(trifluoromethyl)phenyl]-3-[4-(1H-pyrazolo[3,4-b]pyridin-4-yloxy)phenyl]urea] |  |  | 
